In patent US9529005B2, “Modulating bacterial MAM polypeptides in pathogenic disease” (priority 2011, dated 2016):
≈ marks a conversion by molar mass, not a printed value. Where two headings read alike, the source gives them in different places.

How the values were obtained:
Assay in all cases: Antimicrobial susceptibility testing (MIC), BD Phoenix Automated Microbiology System; for interpretation of the result: key: R, resistant; I, intermediate; S, susceptible; R*: *As a rule, when ESBL is detected, an interpretation of susceptible or intermediate for penicillins, cephalosporins and aztreonam is reported as resistant
Type in all cases: cell-based
[1] = system: Acinetobacter baumannii; conditions: for MIC: Acinetobacter baumannii; for interpretation of the result: key: R, resistant; I, intermediate; S, susceptible; R*: *As a rule, when ESBL is detected, an interpretation of susceptible or intermediate for penicillins, cephalosporins and aztreonam is reported as resistant
Text: (§1) The inventors performed antimicrobial susceptibility testing (AST) by determining the minimal inhibiting concentration (MIC) of a panel of antimicrobials on all twenty bacterial isolates using the BD Phoenix Automated Microbiology System (Table 3). Antimicrobial panels included several drugs from each of the four most commonly used classes of antimicrobials, aminoglycosides, β-lactams, carbapenems and fluoroquinolones. The panels also included antimicrobials from other classes, such as trimethoprim/sulfamethoxazole, but resistance to these was not considered in the classification of isolates as multidrug-resistant.

[2] = system: Escherichia coli; conditions: for MIC: Escherichia coli; for interpretation of the result: key: R, resistant; I, intermediate; S, susceptible; R*: *As a rule, when ESBL is detected, an interpretation of susceptible or intermediate for penicillins, cephalosporins and aztreonam is reported as resistant
Text: as §1

[3] = system: Klebsiella ssp.; conditions: for MIC: Klebsiella; for interpretation of the result: key: R, resistant; I, intermediate; S, susceptible; R*: *As a rule, when ESBL is detected, an interpretation of susceptible or intermediate for penicillins, cephalosporins and aztreonam is reported as resistant
Text: as §1

[4] = system: Pseudomonas aeruginosa; conditions: for MIC: Pseudomonas aeruginosa
Text: as §1

[5] = Acinetobacter baumannii isolate 1
[6] = Acinetobacter baumannii isolate 2
[7] = Acinetobacter baumannii isolate 3
[8] = Acinetobacter baumannii isolate 4
[9] = Acinetobacter baumannii isolate 5
[10] = read-out: minimal inhibiting concentration, Escherichia coli isolate 1
[11] = read-out: minimal inhibiting concentration, Escherichia coli isolate 2
[12] = read-out: minimal inhibiting concentration, Escherichia coli isolate 3
[13] = read-out: minimal inhibiting concentration, Escherichia coli isolate 4
[14] = read-out: minimal inhibiting concentration, Escherichia coli isolate 5
[15] = read-out: minimal inhibiting concentration, Klebsiella ssp. isolate 1
[16] = read-out: minimal inhibiting concentration, Klebsiella ssp. isolate 2
[17] = read-out: minimal inhibiting concentration, Klebsiella ssp. isolate 3
[18] = read-out: minimal inhibiting concentration, Klebsiella ssp. isolate 4
[19] = read-out: minimal inhibiting concentration, Klebsiella ssp. isolate 5
[20] = read-out: minimal inhibiting concentration, Acinetobacter baumannii isolate 1
[21] = read-out: minimal inhibiting concentration, Acinetobacter baumannii isolate 2
[22] = read-out: minimal inhibiting concentration, Acinetobacter baumannii isolate 3
[23] = read-out: minimal inhibiting concentration, Acinetobacter baumannii isolate 4
[24] = read-out: minimal inhibiting concentration, Acinetobacter baumannii isolate 5

In the case of `C[C@H]1[C@H](NC(=O)/C(=N\OC(C)(C)C(=O)O)c2csc(N)n2)C(=O)N1S(=O)(=O)O` [Az., Aztreonam], the “interpretation of the result” value [1, 5] is reported as “R”, the “interpretation of the result” value [1, 6] is reported as “R” and the “interpretation of the result” value [1, 7] is reported as “R”. The “interpretation of the result” value [1, 8] was “R”, the “interpretation of the result” value [1, 9] was “R” and the MIC ([1]; Acinetobacter baumannii isolate 1, read-out: minimal inhibiting concentration) was over 16 µg/mL. For the same compound, the MIC ([1]; Acinetobacter baumannii isolate 2, read-out: minimal inhibiting concentration) was over 16 µg/mL, the MIC ([1]; Acinetobacter baumannii isolate 3, read-out: minimal inhibiting concentration) was over 16 µg/mL and the MIC ([1]; Acinetobacter baumannii isolate 4, read-out: minimal inhibiting concentration) was over 16 µg/mL. For the same compound, the MIC ([1]; Acinetobacter baumannii isolate 5, read-out: minimal inhibiting concentration) was over 16 µg/mL, the “interpretation of the result” value ([2]; Escherichia coli isolate 1) was “R” and the “interpretation of the result” value ([2]; Escherichia coli isolate 2) was “R”. The “interpretation of the result” value ([2]; Escherichia coli isolate 3) was “R”, the “interpretation of the result” value ([2]; Escherichia coli isolate 4) was “R” and the MIC ([2]; Escherichia coli isolate 1, read-out: minimal inhibiting concentration) was over 16 µg/mL. It also gave an MIC ([2]; Escherichia coli isolate 2, read-out: minimal inhibiting concentration) of over 16 µg/mL, an MIC ([2]; Escherichia coli isolate 3, read-out: minimal inhibiting concentration) of over 16 µg/mL and an MIC ([2]; Escherichia coli isolate 4, read-out: minimal inhibiting concentration) of over 16 µg/mL. For the same compound, the MIC ([2]; Escherichia coli isolate 5, read-out: minimal inhibiting concentration) was 8 µg/mL (≈ 18.4 µM), the “interpretation of the result” value ([3]; Klebsiella ssp. isolate 1) was “R” and the “interpretation of the result” value ([3]; Klebsiella ssp. isolate 2) was “R”. For the same compound, the “interpretation of the result” value ([3]; Klebsiella ssp. isolate 3) was “R”, the “interpretation of the result” value ([3]; Klebsiella ssp. isolate 4) was “R” and the “interpretation of the result” value ([3]; Klebsiella ssp. isolate 5) was “R”. It also gave an MIC ([3]; Klebsiella ssp. isolate 1, read-out: minimal inhibiting concentration) of over 16 µg/mL, an MIC ([3]; Klebsiella ssp. isolate 2, read-out: minimal inhibiting concentration) of over 16 µg/mL and an MIC ([3]; Klebsiella ssp. isolate 3, read-out: minimal inhibiting concentration) of over 16 µg/mL. It also gave an MIC ([3]; Klebsiella ssp. isolate 4, read-out: minimal inhibiting concentration) of over 16 µg/mL and an MIC ([3]; Klebsiella ssp. isolate 5, read-out: minimal inhibiting concentration) of over 16 µg/mL.
In the case of `CO/N=C(\C(=O)N[C@@H]1C(=O)N2C(C(=O)[O-])=C(C[N+]3(C)CCCC3)CS[C@H]12)c1csc(N)n1` [Cefe., Cefepime], the “interpretation of the result” value ([2]; Escherichia coli isolate 1) is reported as “R”, the “interpretation of the result” value ([2]; Escherichia coli isolate 2) is reported as “R” and the “interpretation of the result” value ([2]; Escherichia coli isolate 3) is reported as “R”. The “interpretation of the result” value ([2]; Escherichia coli isolate 4) was “R”, the MIC [2, 10] was over 16 µg/mL and the MIC [2, 11] was over 16 µg/mL. It also gave an MIC [2, 12] of over 16 µg/mL, an MIC [2, 13] of over 16 µg/mL and an MIC [2, 14] of 8 µg/mL (≈ 16.6 µM). The “interpretation of the result” value ([3]; Klebsiella ssp. isolate 1) was “R”, the “interpretation of the result” value ([3]; Klebsiella ssp. isolate 2) was “R” and the “interpretation of the result” value ([3]; Klebsiella ssp. isolate 4) was “R”. The MIC [3, 15] was over 16 µg/mL, the MIC [3, 16] was over 16 µg/mL and the MIC [3, 17] was 2 µg/mL (≈ 4.16 µM). It also gave an MIC [3, 18] of over 16 µg/mL and an MIC [3, 19] of 2 µg/mL (≈ 4.16 µM).
For `CO/N=C(\C(=O)N[C@@H]1C(=O)N2C(C(=O)O)=C(COC(C)=O)CS[C@H]12)c1csc(N)n1` [Cefo., Cefotaxime], the “interpretation of the result” value [1, 5] was “R”, the “interpretation of the result” value [1, 6] was “R” and the “interpretation of the result” value [1, 7] was “R”. For the same compound, the “interpretation of the result” value [1, 8] was “R”, the “interpretation of the result” value [1, 9] was “R” and the MIC [1, 20] was over 32 µg/mL. The MIC [1, 21] was over 32 µg/mL, the MIC [1, 22] was over 32 µg/mL and the MIC [1, 23] was over 32 µg/mL. For the same compound, the MIC [1, 24] was over 32 µg/mL, the “interpretation of the result” value ([3]; Klebsiella ssp. isolate 1) was “R” and the “interpretation of the result” value ([3]; Klebsiella ssp. isolate 2) was “R”. The “interpretation of the result” value ([3]; Klebsiella ssp. isolate 3) was “S”, the “interpretation of the result” value ([3]; Klebsiella ssp. isolate 4) was “R” and the “interpretation of the result” value ([3]; Klebsiella ssp. isolate 5) was “R”. For the same compound, the MIC [3, 15] was over 32 µg/mL, the MIC [3, 16] was over 32 µg/mL and the MIC [3, 17] was at most 4 µg/mL. For the same compound, the MIC [3, 18] was over 32 µg/mL and the MIC [3, 19] was over 32 µg/mL.
In the case of `CO/N=C(\C(=O)N[C@@H]1C(=O)N2C(C(=O)O)=C(COC(N)=O)CS[C@H]12)c1ccco1` [Cefu., Cefuroxime], the “interpretation of the result” value [1, 5] is reported as “R”, the “interpretation of the result” value [1, 6] is reported as “R” and the “interpretation of the result” value [1, 7] is reported as “R”. For the same compound, the “interpretation of the result” value [1, 8] was “R”, the “interpretation of the result” value [1, 9] was “R” and the MIC [1, 20] was over 16 µg/mL. For the same compound, the MIC [1, 21] was over 16 µg/mL, the MIC [1, 22] was over 16 µg/mL and the MIC [1, 23] was over 16 µg/mL. For the same compound, the MIC [1, 24] was over 16 µg/mL, the “interpretation of the result” value ([2]; Escherichia coli isolate 1) was “R” and the “interpretation of the result” value ([2]; Escherichia coli isolate 2) was “R”. The “interpretation of the result” value ([2]; Escherichia coli isolate 3) was “R”, the “interpretation of the result” value ([2]; Escherichia coli isolate 4) was “R” and the “interpretation of the result” value ([2]; Escherichia coli isolate 5) was “R”. The MIC [2, 10] was over 16 µg/mL, the MIC [2, 11] was over 16 µg/mL and the MIC [2, 12] was over 16 µg/mL. For the same compound, the MIC [2, 13] was over 16 µg/mL, the MIC [2, 14] was over 16 µg/mL and the “interpretation of the result” value ([4]; Pseudomonas aeruginosa isolate 1) was “R”. The “interpretation of the result” value ([4]; Pseudomonas aeruginosa isolate 2) was “R”, the “interpretation of the result” value ([4]; Pseudomonas aeruginosa isolate 3) was “R” and the “interpretation of the result” value ([4]; Pseudomonas aeruginosa isolate 4) was “R”. The “interpretation of the result” value ([4]; Pseudomonas aeruginosa isolate 5) was “R”, the MIC ([4]; read-out: minimal inhibiting concentration, Pseudomonas aeruginosa isolate 1) was over 16 µg/mL and the MIC ([4]; read-out: minimal inhibiting concentration, Pseudomonas aeruginosa isolate 2) was over 16 µg/mL. It also gave an MIC ([4]; read-out: minimal inhibiting concentration, Pseudomonas aeruginosa isolate 3) of over 16 µg/mL, an MIC ([4]; read-out: minimal inhibiting concentration, Pseudomonas aeruginosa isolate 4) of over 16 µg/mL and an MIC ([4]; read-out: minimal inhibiting concentration, Pseudomonas aeruginosa isolate 5) of over 16 µg/mL.
For `CC(=O)OCC1=C(C(=O)O)N2C(=O)[C@@H](NC(=O)Cc3cccs3)[C@H]2SC1` [Ceph., Cephalotin], the “interpretation of the result” value [1, 5] was “R”, the minimal inhibiting concentration [1, 5] was over 16 µg/mL and the “interpretation of the result” value [1, 6] was “R”. The minimal inhibiting concentration [1, 6] was over 16 µg/mL, the “interpretation of the result” value [1, 7] was “R” and the minimal inhibiting concentration [1, 7] was over 16 µg/mL. For the same compound, the “interpretation of the result” value [1, 8] was “R”, the minimal inhibiting concentration [1, 8] was over 16 µg/mL and the “interpretation of the result” value [1, 9] was “R”. The minimal inhibiting concentration [1, 9] was over 16 µg/mL.
